In test [1] the target is T1, recombinant α4β3δ GABAA receptors (Homo sapiens, UniProt P28472+P48169).
T1 construct: expressed in transfected cells; host or cells: CHO cells, transiently transfected (Lipofectamine)
Description: Manual patch clamp electrophysiology in CHO cells transiently transfected with α4β3δ. It counts as cell-based. Conditions: 10 μM compound, 2 μM GABA (EC20), read-out: GABA (α4β3δ) Manual patch in CHO, % efficacy at 10 μM.

Test [2] deals with T2, recombinant α1β2γ2 GABAA receptors (Homo sapiens, UniProt P14867+P47870).
T2 construct: expressed in transfected cells; host or cells: LTK cells, stably transfected
T2 sequence (P14867 28-456): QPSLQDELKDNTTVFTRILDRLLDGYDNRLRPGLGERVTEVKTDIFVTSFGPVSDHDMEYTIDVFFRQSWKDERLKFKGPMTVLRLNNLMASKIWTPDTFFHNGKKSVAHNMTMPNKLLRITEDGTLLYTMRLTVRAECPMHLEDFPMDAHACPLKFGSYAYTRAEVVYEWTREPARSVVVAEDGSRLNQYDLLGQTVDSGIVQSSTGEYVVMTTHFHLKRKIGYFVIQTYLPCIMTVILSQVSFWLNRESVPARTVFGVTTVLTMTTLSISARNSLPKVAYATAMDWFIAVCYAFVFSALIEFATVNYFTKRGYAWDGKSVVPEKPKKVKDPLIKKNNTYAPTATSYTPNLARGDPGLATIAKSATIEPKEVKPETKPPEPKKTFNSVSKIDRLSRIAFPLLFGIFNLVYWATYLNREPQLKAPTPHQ
T2 sequence (P47870 26-512): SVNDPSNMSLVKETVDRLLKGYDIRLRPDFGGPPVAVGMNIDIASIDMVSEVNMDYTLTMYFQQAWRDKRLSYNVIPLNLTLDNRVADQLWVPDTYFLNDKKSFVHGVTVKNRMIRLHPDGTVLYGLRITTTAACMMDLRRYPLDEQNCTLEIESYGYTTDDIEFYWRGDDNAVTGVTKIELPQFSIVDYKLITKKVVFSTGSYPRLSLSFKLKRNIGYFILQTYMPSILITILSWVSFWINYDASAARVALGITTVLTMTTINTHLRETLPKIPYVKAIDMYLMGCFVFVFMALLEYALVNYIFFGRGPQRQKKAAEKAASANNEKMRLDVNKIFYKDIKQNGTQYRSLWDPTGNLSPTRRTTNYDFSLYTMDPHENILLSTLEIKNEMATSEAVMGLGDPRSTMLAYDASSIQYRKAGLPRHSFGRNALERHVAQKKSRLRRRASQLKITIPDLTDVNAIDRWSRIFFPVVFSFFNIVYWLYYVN
T2 sequence (P18507 40-475 partner): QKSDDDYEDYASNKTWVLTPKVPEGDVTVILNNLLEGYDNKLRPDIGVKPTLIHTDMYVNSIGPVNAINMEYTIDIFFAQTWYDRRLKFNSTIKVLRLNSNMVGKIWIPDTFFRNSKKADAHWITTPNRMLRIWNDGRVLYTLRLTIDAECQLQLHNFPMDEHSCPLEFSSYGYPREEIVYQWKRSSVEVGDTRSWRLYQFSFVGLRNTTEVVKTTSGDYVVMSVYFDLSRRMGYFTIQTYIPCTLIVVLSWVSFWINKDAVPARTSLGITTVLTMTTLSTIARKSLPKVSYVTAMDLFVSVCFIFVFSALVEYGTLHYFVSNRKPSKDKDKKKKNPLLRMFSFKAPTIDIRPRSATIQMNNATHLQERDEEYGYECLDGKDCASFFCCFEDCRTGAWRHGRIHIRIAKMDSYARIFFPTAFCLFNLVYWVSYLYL
The test can be described thus: Patch clamp electrophysiology (QPatch) in LTK cells stably transfected with α1β2γ2. The class given is cell-based. Conditions: 10 μM compound, 2 μM GABA (EC20), read-out: GABA (α1β2γ2) Qpatch in Ltk, % efficacy at 10 μM. A general note: In patch-clamp work, channel activity is measured electrically.

The target in test [3] is [35S]-TBPS binding in rat brain cortical membranes. Description: Steroid inhibition of [35S]-TBPS binding, rat brain cortical membranes. As to conditions: 3 nM [35S]-TBPS, in the presence of 5 μM GABA, read-out: 35S-TBPS Radioligand Displacement (IC50). The method, boiled down: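 Washed P2 cortical membranes from Sprague-Dawley rats were incubated 90 min at room temperature with 3 nM [35S]-TBPS, 5 μM GABA and test steroid (0.5% DMSO) in 200 mM NaCl/50 mM Na–K phosphate, pH 7.4. Nonspecific binding was defined with 2 μM unlabeled TBPS, and samples were filtered and counted. IC50 and Imax came from non-linear fits, reported as mean ± SEM.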
Background: Displacement assays read how much labelled ligand stays bound in the presence of the test substance.

The target of test [4] is T3, GABAA receptors composed of the α1β2γ2 subunits (GABRA1/GABRB2/GABRG2) (Homo sapiens, UniProt P14867+P47870).
T3 construct: expressed in transfected cells; host or cells: Xenopus laevis oocytes, injected (ratio 1:1:1)
T3 sequence (P14867 28-456): as the sequence (P14867 28-456) above
T3 sequence (P47870 26-512): as the sequence (P47870 26-512) above
T3 sequence (P18507 40-475 partner): as the sequence (P18507 40-475 partner) above
Description: Two Electrode Voltage Clamp (TEVC), GABA receptor potentiation in Xenopus laevis oocytes, α1β2γ2. It counts as cell-based. Conditions: 10 μM compound, 10 μM GABA, read-out: GABA (α1β2γ2) % efficacy at 10 μM.

For test [5], the target named is T4, GABAA receptors composed of the α4β3δ subunits (GABRA4/GABRB3/GABRD) (Homo sapiens, UniProt P28472+P48169).
T4 construct: expressed in transfected cells; host or cells: Xenopus laevis oocytes, injected (ratio 5:1:5)
T4 sequence (P48169 36-554): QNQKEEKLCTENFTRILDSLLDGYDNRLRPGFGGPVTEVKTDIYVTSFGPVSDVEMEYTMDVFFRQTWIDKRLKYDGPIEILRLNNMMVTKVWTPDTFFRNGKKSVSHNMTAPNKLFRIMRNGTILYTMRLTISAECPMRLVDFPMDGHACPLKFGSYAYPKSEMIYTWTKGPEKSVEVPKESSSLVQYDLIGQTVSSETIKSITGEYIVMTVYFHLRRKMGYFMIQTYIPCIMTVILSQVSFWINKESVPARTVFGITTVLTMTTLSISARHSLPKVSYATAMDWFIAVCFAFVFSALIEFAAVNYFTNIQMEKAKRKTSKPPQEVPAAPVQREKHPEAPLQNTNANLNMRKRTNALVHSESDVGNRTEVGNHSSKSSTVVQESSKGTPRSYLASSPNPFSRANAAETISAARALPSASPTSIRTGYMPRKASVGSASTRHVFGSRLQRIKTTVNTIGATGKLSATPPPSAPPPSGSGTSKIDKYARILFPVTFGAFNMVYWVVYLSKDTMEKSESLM
T4 sequence (P28472 26-473): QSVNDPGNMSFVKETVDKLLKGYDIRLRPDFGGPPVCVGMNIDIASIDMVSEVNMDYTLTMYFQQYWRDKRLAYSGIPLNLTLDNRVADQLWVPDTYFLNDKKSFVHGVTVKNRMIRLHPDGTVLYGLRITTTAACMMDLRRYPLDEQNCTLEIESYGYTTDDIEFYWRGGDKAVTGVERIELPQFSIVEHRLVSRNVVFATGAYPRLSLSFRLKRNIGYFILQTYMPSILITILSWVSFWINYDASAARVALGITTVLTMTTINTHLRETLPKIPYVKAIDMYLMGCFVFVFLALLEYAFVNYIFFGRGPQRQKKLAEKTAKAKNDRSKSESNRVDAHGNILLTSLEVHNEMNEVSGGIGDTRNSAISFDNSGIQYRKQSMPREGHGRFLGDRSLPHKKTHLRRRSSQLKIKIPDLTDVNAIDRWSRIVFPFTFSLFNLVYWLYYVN
T4 sequence (O14764 25-452 partner): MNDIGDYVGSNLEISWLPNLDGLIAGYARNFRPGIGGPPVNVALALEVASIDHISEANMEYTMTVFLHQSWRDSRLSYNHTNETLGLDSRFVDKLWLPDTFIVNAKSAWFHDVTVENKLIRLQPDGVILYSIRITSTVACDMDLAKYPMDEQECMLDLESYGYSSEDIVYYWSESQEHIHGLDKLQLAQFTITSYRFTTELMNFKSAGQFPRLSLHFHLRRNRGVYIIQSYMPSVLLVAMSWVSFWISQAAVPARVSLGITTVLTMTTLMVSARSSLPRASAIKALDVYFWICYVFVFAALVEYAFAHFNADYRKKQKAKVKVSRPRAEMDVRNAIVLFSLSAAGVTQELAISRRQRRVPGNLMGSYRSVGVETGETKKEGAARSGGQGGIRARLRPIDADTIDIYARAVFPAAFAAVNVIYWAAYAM
The test can be described thus: Two Electrode Voltage Clamp (TEVC), GABA receptor potentiation in Xenopus laevis oocytes, α4β3δ. The class given is cell-based. Conditions: 10 μM compound, 3 μM GABA, read-out: GABA (α4β3δ) % efficacy at 10 μM. How it is done:
The Two Electrode Voltage Clamp (TEVC) technique was used to investigate the effects of compounds at a concentration of 10 μM on GABAA receptors composed of the α1β2γ2 or α4β3δ subunits expressed in oocytes from the Xenopus laevis. GABA-evoked currents were recorded from oocytes that expressed the GABA receptors and the modulatory effects of the test items on these currents were investigated.
Ovaries were harvested from Xenopus laevis females that had been deeply anesthetized by cooling at 4° C. and immersion in Tricaine methanesulfonate (MS-222 at a concentration of 150 mg/L) in sodium bicarbonate (300 mg/L). Once anesthetized the animal was decapitated and pithed following the rules of animal rights from the Geneva canton. A small piece of ovary was isolated for immediate preparation while the remaining part was placed at 4° C. in a sterile Barth solution containing in mM NaCl 88, KCl 1, NaHCO3 2.4, HEPES 10, MgSO4·7H2O 0.82, Ca(NO3)2·4H2O 0.33, CaCl2·6H2O 0.41, at pH 7.4, and supplemented with 20 μg/ml of kanamycin, 100 unit/ml penicillin and 100 μg/ml streptomycin. All recordings were performed at 18° C. and cells were super-fused with medium containing in mM: NaCl 82.5, KCl 2.5, HEPES 5, CaCl2·2H2O, ·6H2O 1, pH 7.4.
Plasmids containing the RNAs of the human GABRA1/GABRB2/GABRG2 and GABRA4/GABRB3/GABRD genes were injected into oocytes using a proprietary automated injection device (Hogg el al., J. Neurosci. Methods, (2008) 169: 65-75). These genes encode for the α1β2γ2 and α4β3δ GABAA subunits respectively. Receptor expression was assessed using electrophysiology at least two days later. The ratio of RNA injection for α1β2γ2 was 1:1:1 and for α4β3δ was 5:1:5. Electrophysiological recordings were made using an automated process equipped with standard TEVC and data were captured and analyzed using a proprietary data acquisition and analysis software running under Matlab (Mathworks Inc.). The membrane potential of the oocytes was maintained at −80 mV throughout the experiments. To explore the effects of proprietary compounds, currents were evoked by applying 10 μM (α1β2γ2) or 3 μM (α4β3δ) GABA for 30 s. These concentrations approximated the EC50 concentration of GABA at each receptor subtype. Oocytes were then re-exposed to GABA again for 30 s. 15 s after beginning the GABA application, test article was co-applied at a concentration of 10 μM for 15 s. Potentiation of the peak current was assessed. Data was filtered at 10 Hz, captured at 100 Hz and analyzed using proprietary data acquisition and analysis software running under Matlab (Mathworks Inc.). For statistical analysis values were computed either with Excel (Microsoft) or Matlab (mathworks Inc.). To obtain mean measurements with standard deviations, all experiments were carried out using at least three cells.

Where only a bound is given, the exact number is not on record here.

We go through 23 compounds from patent US12071453B2, “Neuroactive steroids, compositions, and uses thereof” (Sage Therapeutics, Inc., priority 2013, dated 2024).

T1 sequence (P48169 36-554): as the sequence (P48169 36-554) above
T1 sequence (P28472 26-473): as the sequence (P28472 26-473) above
T1 sequence (O14764 25-452 partner): as the sequence (O14764 25-452 partner) above

For the compound `COC[C@]12CC[C@@](C)(O)C[C@@H]1CC[C@H]1[C@@H]3CC[C@H](C(=O)Cn4nccn4)[C@@]3(C)CC[C@@H]12` [Compound 1], the Emax at 10 µM in test [1] was more than 500%; in test [2], 100 to 500%. Besides, the IC50 – broadly, the concentration that inhibits the measured activity by half – in test [3] fell in the range of 10 to 50 nM.
For `COC[C@]12CC[C@@](C)(O)C[C@@H]1CC[C@H]1[C@@H]3CC[C@H](C(=O)Cn4nnnc4C)[C@@]3(C)CC[C@@H]12` [Compound 16], the Emax at 10 µM in test [1] and in test [2] was more than 500% in each case. The half-maximal inhibitory concentration (IC50) in test [3] lay within 10 to 50 nM.
Consider `COC[C@]12CC[C@@](C)(O)C[C@@H]1CC[C@H]1[C@@H]3CC[C@H](C(=O)Cn4ccc(C#N)n4)[C@@]3(C)CC[C@@H]12` [Compound 19], for which the Emax at 10 µM in test [1] and in test [2] was 100 to 500% in each case.
Turning to `COC[C@]12CC[C@@](C)(O)C[C@H]1CC[C@H]1[C@@H]3CC[C@H](C(=O)Cn4nnnc4C)[C@@]3(C)CC[C@@H]12` [Compound 30], the Emax at 10 µM in test [1] is more than 500%; in test [2] it was 100 to 500%. Moreover, in test [3], the IC50 was less than 10 nM.
In the same order, the values of `COC[C@]12CC[C@@](C)(O)C[C@@H]1CC[C@H]1[C@@H]3CC[C@H](C(=O)Cn4nc5ccc(Cl)cc5n4)[C@@]3(C)CC[C@@H]12` [Compound 35] are 100 to 500%, 100 to 500% and 10 to 50 nM.
In the same order, the values of `COC[C@]12CC[C@@](C)(O)C[C@@H]1CC[C@H]1[C@@H]3CC[C@H](C(=O)Cn4nnc5ccc(Cl)cc54)[C@@]3(C)CC[C@@H]12` [Compound 36] are 100 to 500%, 100 to 500% and 10 to 50 nM.
In the same order, the values of `COC[C@]12CC[C@@](C)(O)C[C@@H]1CC[C@H]1[C@@H]3CC[C@H](C(=O)Cn4nnc5cc(Cl)ccc54)[C@@]3(C)CC[C@@H]12` [Compound 37] are more than 500%, more than 500% and 10 to 50 nM.
`COC[C@]12CC[C@@](C)(O)C[C@@H]1CC[C@H]1[C@@H]3CC[C@H](C(=O)Cn4nc5ccc(OC)c(OC)c5n4)[C@@]3(C)CC[C@@H]12` [Compound 64]: the Emax at 10 µM in test [4] was 1000 to 1500%; in test [5] it was 500 to 1000%. Moreover, the IC50 in test [3] fell in the range of 10 to 50 nM.
In the same order, the values of `COC[C@]12CC[C@@](C)(O)C[C@@H]1CC[C@H]1[C@@H]3CC[C@H](C(=O)Cn4nnc5c(OC)cc(OC)cc54)[C@@]3(C)CC[C@@H]12` [Compound 66] are 50 to 500%, 1000 to 1500% and 10 to 50 nM.
For the compound `COC[C@]12CC[C@@](C)(O)C[C@@H]1CC[C@H]1[C@@H]3CC[C@H](C(=O)Cn4ncc5ncc(Br)cc54)[C@@]3(C)CC[C@@H]12` [Compound 67], the results for the Emax at 10 µM in test [4] and in test [5] were 50 to 500% and 500 to 1000%, respectively. For the same compound, in test [3], the concentration for half-maximal inhibition (IC50) was in the range of 10 to 50 nM.
Regarding `COC[C@]12CC[C@@](C)(O)C[C@@H]1CC[C@H]1[C@@H]3CC[C@H](C(=O)Cn4cc5ncc(Cl)cc5n4)[C@@]3(C)CC[C@@H]12` [Compound 68], the Emax at 10 µM in test [4] fell in the range of 50 to 500%; in test [5] it was 1000 to 1500%. In addition, the half-maximal inhibitory concentration (IC50) in test [3] was 10 to 50 nM.
Taken in the same sequence, the figures for `COC[C@]12CC[C@@](C)(O)C[C@@H]1CC[C@H]1[C@@H]3CC[C@H](C(=O)Cn4ncc5ncc(Cl)cc54)[C@@]3(C)CC[C@@H]12` [Compound 69] were 500 to 1000%, 1000 to 1500% and 10 to 50 nM.
Taken in the same sequence, the figures for `CCOC[C@]12CC[C@@](C)(O)C[C@@H]1CC[C@H]1[C@@H]3CC[C@H](C(=O)Cn4nnc5ccc(Cl)cc54)[C@@]3(C)CC[C@@H]12` [Compound 70] were 50 to 500%, 1000 to 1500% and 50 to 100 nM.
In the same order, the values of `CCOC[C@]12CC[C@@](C)(O)C[C@@H]1CC[C@H]1[C@@H]3CC[C@H](C(=O)Cn4nnc5cc(Cl)ccc54)[C@@]3(C)CC[C@@H]12` [Compound 71] are 50 to 500%, 1000 to 1500% and 10 to 50 nM.
In the case of `CCOC[C@]12CC[C@@](C)(O)C[C@@H]1CC[C@H]1[C@@H]3CC[C@H](C(=O)Cn4nc5ccc(Cl)cc5n4)[C@@]3(C)CC[C@@H]12` [Compound 72], the Emax at 10 µM fell in the range of 50 to 500% in test [4] and 1000 to 1500% in test [5]. Moreover, the IC50 in test [3] was 10 to 50 nM.
In the same order, the values of `COC[C@]12CC[C@@](C)(O)C[C@H]1CC[C@H]1[C@@H]3CC[C@H](C(=O)Cn4nc5ccc(F)c(F)c5n4)[C@@]3(C)CC[C@@H]12` [Compound 79] are 500 to 1000%, 1000 to 1500% and less than 10 nM.
In the same order, the values of `COC[C@]12CC[C@@](C)(O)C[C@@H]1CC[C@H]1[C@@H]3CC[C@H](C(=O)Cn4nnc5cc(F)c(F)cc54)[C@@]3(C)CC[C@@H]12` [Compound 98] are 500 to 1000%, 1000 to 1500% and 50 to 100 nM.
Taken in the same sequence, the figures for `COC[C@]12CC[C@@](C)(O)C[C@@H]1CC[C@H]1[C@@H]3CC[C@H](C(=O)Cn4ncc5nccnc54)[C@@]3(C)CC[C@@H]12` [Compound 102] were 50 to 500%, 50 to 500% and 100 to 500 nM.
Turning to `COC[C@]12CC[C@@](C)(O)C[C@@H]1CC[C@H]1[C@@H]3CC[C@H](C(=O)Cn4nc5ccc(OC(F)(F)F)cc5n4)[C@@]3(C)CC[C@@H]12` [Compound 104], the Emax at 10 µM in test [4] lay in the range of 50 to 500%; in test [5], 1000 to 1500%. Besides, the 50% inhibitory concentration (IC50) in test [3] was in the range of 50 to 100 nM.
Taken in the same sequence, the figures for `COC[C@]12CC[C@@](C)(O)C[C@@H]1CC[C@H]1[C@@H]3CC[C@H](C(=O)Cn4ncc5cc(Cl)ccc54)[C@@]3(C)CC[C@@H]12` [Compound 105] were 50 to 500%, 1000 to 1500% and more than 500 nM.
`COC[C@]12CC[C@@](C)(O)C[C@@H]1CC[C@H]1[C@@H]3CC[C@H](C(=O)Cn4cc5cc(Cl)ccc5n4)[C@@]3(C)CC[C@@H]12` [Compound 106]: the Emax at 10 µM in test [4] was in the range of 50 to 500%; in test [5] it was 1000 to 1500%. Also, the IC50 in test [3] is 100 to 500 nM.
With `COC[C@]12CC[C@@](C)(O)C[C@@H]1CC[C@H]1[C@@H]3CC[C@H](C(=O)Cn4nc5ccc(Cl)c(F)c5n4)[C@@]3(C)CC[C@@H]12` [Compound 109], the Emax at 10 µM in test [4] lay within 50 to 500%; in test [5] it was 1000 to 1500%. Also, the concentration for half-maximal inhibition (IC50) in test [3] is 50 to 100 nM.
Taken in the same sequence, the figures for `COC[C@]12CC[C@@](C)(O)C[C@@H]1CC[C@H]1[C@@H]3CC[C@H](C(=O)Cn4cc5ccc(Cl)cc5n4)[C@@]3(C)CC[C@@H]12` [Compound 113] were 50 to 500%, 500 to 1000% and 100 to 500 nM.
